Measured values from patent US20220363665A1, “QUINOLINE COMPOUNDS FOR THE TREATMENT OF AUTOIMMUNE DISEASE” (Hoffmann-La Roche Inc., priority 2019, published 2022).

What was measured:
human TLR9 = target: T1, human TLR9 (Homo sapiens, UniProt Q9NR96); assay: HEK293-Blue-hTLR-9 cells assay (SEAP reporter, ODN2006 stimulation); format: cell-based; conditions: HEK293-Blue-hTLR9 cells, ODN2006, 20 hrs
T1 construct: host or cells: HEK293 (HEK-Blue hTLR9)
T1 sequence (Q9NR96 26-1032): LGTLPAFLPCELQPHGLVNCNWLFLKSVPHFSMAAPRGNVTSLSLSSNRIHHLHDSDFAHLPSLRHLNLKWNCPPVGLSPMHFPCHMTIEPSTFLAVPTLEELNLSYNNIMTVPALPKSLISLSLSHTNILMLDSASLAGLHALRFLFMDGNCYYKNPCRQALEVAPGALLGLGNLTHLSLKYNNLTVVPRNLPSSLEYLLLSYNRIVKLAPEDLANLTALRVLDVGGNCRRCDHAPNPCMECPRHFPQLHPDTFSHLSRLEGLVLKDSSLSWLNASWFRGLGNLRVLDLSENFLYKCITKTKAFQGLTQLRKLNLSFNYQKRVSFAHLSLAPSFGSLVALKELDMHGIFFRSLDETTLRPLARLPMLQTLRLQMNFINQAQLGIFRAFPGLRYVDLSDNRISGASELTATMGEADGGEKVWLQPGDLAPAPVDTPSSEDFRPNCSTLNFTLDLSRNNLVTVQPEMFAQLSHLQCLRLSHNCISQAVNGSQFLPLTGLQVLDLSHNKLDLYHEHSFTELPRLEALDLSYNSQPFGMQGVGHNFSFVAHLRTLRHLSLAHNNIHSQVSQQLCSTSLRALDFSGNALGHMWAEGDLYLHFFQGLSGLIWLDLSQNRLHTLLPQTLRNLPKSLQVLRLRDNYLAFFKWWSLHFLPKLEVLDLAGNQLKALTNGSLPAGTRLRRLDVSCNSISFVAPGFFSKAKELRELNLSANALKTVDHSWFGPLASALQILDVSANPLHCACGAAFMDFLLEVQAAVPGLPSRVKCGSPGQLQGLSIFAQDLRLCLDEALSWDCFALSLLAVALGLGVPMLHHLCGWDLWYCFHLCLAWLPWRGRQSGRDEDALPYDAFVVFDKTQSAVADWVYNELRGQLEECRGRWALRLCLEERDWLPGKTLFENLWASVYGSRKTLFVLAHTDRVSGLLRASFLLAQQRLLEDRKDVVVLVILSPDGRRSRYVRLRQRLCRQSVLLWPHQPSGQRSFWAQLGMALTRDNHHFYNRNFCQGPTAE
Procedure: The following tests were carried out in order to determine the activity of the compounds of formula (I) in HEK293-Blue-hTLR-7/8/9 cells assay.
HEK293-Blue-hTLR-9 Cells Assay:
A stable HEK293-Blue-hTLR-9 cell line was purchased from InvivoGen (Cat. #. hkb-htlr9, San Diego, Calif., USA). These cells were originally designed for studying the stimulation of human TLR9 by monitoring the activation of NF-κB. A SEAP (secreted embryonic alkaline phosphatase) reporter gene was placed under the control of the […] minimal promoter fused to five NF-κB and AP-1-binding sites. The SEAP was induced by activating NF-κB and AP-1 via stimulating HEK-Blue hTLR9 cells with TLR9 ligands. Therefore the reporter expression was declined by TLR9 antagonist under the stimulation of a ligand, such as ODN2006 (Cat. #: tlrl-2006-1, Invivogen, San Diego, Calif., USA), for incubation of 20 hrs. The cell culture supernatant SEAP reporter activity was determined using QUANTI-Blue™ kit (Cat. #: rep-qbl, Invivogen, San Diego, Calif., USA) at a wavelength of 640 nm, a detection medium that turns purple or blue in the presence of alkaline phosphatase.
HEK293-Blue-hTLR9 cells were incubated at a density of […] cells/mL in a volume of 170 μL, in a 96-well plate in Dulbecco's Modified Eagle's medium (DMEM) containing 4.5 g/L glucose, 50 U/mL penicillin, […], […], 2 mM L-glutamine, 10% (v/v) heat-inactivated fetal bovine serum with addition of 20 μL test compound in a serial dilution in the presence of final DMSO at 1% and 10 μL of 20 uM ODN2006 in above DMEM, perform incubation under 37° C. in a CO2 incubator for 20 hrs. Then 20 μL of the supernatant from each well was incubated with 180 μL Quanti-blue substrate solution at 37° C. for 2 hrs and the absorbance was read at 620˜655 nm using a spectrophotometer. The signalling pathway that TLR9 activation leads to downstream NF-κB activation has been widely accepted, and therefore similar reporter assay was modified for evaluating TLR9 antagonist.

LYSA solubility assay = format: physicochemical; conditions: for solubility thermodynamic: 0.05 M phosphate buffer, pH 6.5, aqueous buffer, thermodynamic from solid; for LYSA: 0.05 M phosphate buffer (pH 6.5)
Procedure: LYSA study is used to determine the aqueous solubility of tested compounds. Samples are prepared in duplicate from 10 mM DMSO stock solution. After evaporation of DMSO with a centrifugal vacuum evaporator, compounds are dissolved in a 0.05 M phosphate buffer (pH 6.5), stirred for one hr and shaken for two hrs. After one night, the solutions are filtered using a microtiter filter plate. Then the filtrate and its 1/10 dilution are analyzed by HPLC-UV. In addition, a four-point calibration curve is prepared from the 10 mM stock solutions and used for the solubility determination of the compounds. The results are in μg/mL. In case the percentage of sample measured in solution after evaporation divided by the calculated maximum of sample amount is bigger than 80%, the solubility is reported as bigger than this value.

[1] = Human microsome stability assay; format: in vitro ADME; conditions: 1 μM test compound, 0.5 mg/mL protein
Procedure: The human microsomal stability assay is used for early assessment of metabolic stability of a test compound in human liver microsomes.
Human liver microsomes (Cat. NO.: 452117, Corning, USA; Cat. NO.: H2610, Xenotech, USA) were preincubated with test compound for 10 minutes at 37° C. in 100 mM potassium phosphate buffer, pH 7.4. The reactions were initiated by adding NADPH regenerating system. The final incubation mixtures contained 1 μM test compound, 0.5 mg/mL liver microsomal protein, 1 mM MgCl2, 1 mM NADP, 1 unit/mL isocitric dehydrogenase and 6 mM isocitric acid in 100 mM potassium phosphate buffer, pH 7.4. After incubation times of 0, 3, 6, 9, 15 and 30 minutes at 37° C., 300 μL of cold ACN (including internal standard) was added to 100 μL incubation mixture to terminate the reaction. Following precipitation and centrifugation, the amount of compound remaining in the samples were determined by LC-MS/MS. Controls of no NADPH regenerating system at zero and 30 minutes were also prepared and analyzed. The results were categorized as: low (<7.0 mL/min/kg), medium (7.0˜16.2 mL/min/kg) and high (16.2-23.2 mL/min/kg).

Q: What does the source list for `C[C@@H]1CN(c2ccc(I)c3ncccc23)C[C@H](C(=O)NC2CCN(C)CC2)O1` [Example 38, (2R,6R)-4-(8-iodo-5-quinolyl)-6-methyl-N-(1-methyl-4-piperidyl)morpholine-2-carboxamide]?
A: IC50 (human TLR9): 6 µM; solubility thermodynamic (LYSA solubility assay): > 650 µg/mL; clearance in human liver microsomes [1]: 7.04 mL/min/kg

Q: For `C[C@@H]1CN(c2ccc(C(F)(F)F)c3ncccc23)C[C@H](C(=O)NC2CC3CCCC(C2)N3)O1` (single isomer, unassigned) [Example 34A], which IC50 (human TLR9) is on record?
A: The IC50 was 8.5 µM.

Q: And the solubility thermodynamic (LYSA solubility assay)?
A: The solubility thermodynamic was over 620 µg/mL.

Q: What about the “clearance in human liver microsomes” value [1] of the same molecule?
A: Its value is 6.24 mL/min/kg.

Q: For `C[C@@H]1CN(c2ccc(C(F)(F)F)c3ncccc23)C[C@H](C(=O)NC2CNC[C@@H]2F)O1` (stereo partly drawn) [Example 2, cis-(2R,6R)-N-(4-fluoropyrrolidin-3-yl)-6-methyl-4-[8-(trifluoromethyl)-5-quinolyl]morpholine-2-carboxamide], which IC50 (human TLR9) is on record?
A: The IC50 was 51.8 µM.

Q: What about the solubility thermodynamic (LYSA solubility assay) of the same molecule?
A: Its solubility thermodynamic is over 585 µg/mL.

Q: What about the “clearance in human liver microsomes” value [1] of the same molecule?
A: Its value is 6.15 mL/min/kg.

Q: Which results are given for `C[C@@H]1CN(c2ccc(C(F)(F)F)c3ncccc23)C[C@H](C(=O)NC2C3CCC2CNC3)O1` (stereo partly drawn) [Example 31, (2R,6R)-N-(3-azabicyclo[3.2.1]octan-8-yl)-6-methyl-4-[8-(trifluoromethyl)-5-quinolyl]morpholine-2-carboxamide]?
A: IC50 (human TLR9): 9.2 µM; solubility thermodynamic (LYSA solubility assay): > 597 µg/mL; clearance in human liver microsomes [1]: 6.15 mL/min/kg

Q: With `Cc1ccc(N2C[C@@H](C)O[C@@H](C(=O)NCC3CN(C)CCO3)C2)c2cccnc12` (stereo partly drawn) [Example 17, (2R,6R)-6-methyl-N-[(4-methylmorpholin-2-yl)methyl]-4-(8-methyl-5-quinolyl)morpholine-2-carboxamide] as the molecule, how does the IC50 (human TLR9) read?
A: Its IC50 is over 100 µM.

Q: And the solubility thermodynamic (LYSA solubility assay)?
A: Its solubility thermodynamic is over 485 µg/mL.

Q: What about the “clearance in human liver microsomes” value [1] of the same molecule?
A: The value was 6.15 mL/min/kg.

Q: Which results are given for `C[C@@H]1CN(c2ccc(Cl)c3ncccc23)C[C@H](C(=O)NC2CCN(C)CC2)O1` [Example 24, (2R,6R)-4-(8-chloro-5-quinolyI)-6-methyl-N-(1-methyl-4-piperidyl)morpholine-2-carboxamide]?
A: IC50 (human TLR9): 23.7 µM; solubility thermodynamic (LYSA solubility assay): > 475 µg/mL; clearance in human liver microsomes [1]: 6.15 mL/min/kg

Q: For `C[C@H]1C[C@@H](N)CN(c2ccc(Cl)c3ncccc23)C1` [Example 23, (3R,5S)-1-(8-chloro-5-quinolyl)-5-methyl-piperidin-3-amine], which IC50 (human TLR9) is on record?
A: Its IC50 is 7 µM.

Q: And the solubility thermodynamic (LYSA solubility assay)?
A: The solubility thermodynamic was over 315 µg/mL.

Q: And the “clearance in human liver microsomes” value [1]?
A: The value was 6.15 mL/min/kg.

Q: With `C[C@@H]1CN(c2ccc(C(F)(F)F)c3ncccc23)C[C@H](C(=O)N[C@@H]2CNC[C@@H]2F)O1` (single isomer, unassigned) [Example 2A] as the molecule, how does the IC50 (human TLR9) read?
A: Its IC50 is 41 µM.

Q: And the solubility thermodynamic (LYSA solubility assay)?
A: The solubility thermodynamic was over 580 µg/mL.

Q: What about the “clearance in human liver microsomes” value [1] of the same molecule?
A: The value was 6.15 mL/min/kg.

Q: What does the source list for `C[C@@H]1CN(c2ccc(Cl)c3ncccc23)C[C@H](C(=O)NCC2CN(C)CCO2)O1` (stereo partly drawn) [Example 26, (2R,6R)-4-(8-chloro-5-quinolyl)-6-methyl-N-[(4-methylmorpholin-2-yl)methyl]morpholine-2-carboxamide]?
A: IC50 (human TLR9): 46 µM; solubility thermodynamic (LYSA solubility assay): > 520 µg/mL; clearance in human liver microsomes [1]: 6.15 mL/min/kg

Q: Which IC50 (human TLR9) does the source give for `Cc1ccc(N2C[C@@H](C)O[C@@H](C(=O)NC3CCN(C)CC3)C2)c2cccnc12` [Example 16, (2R,6R)-6-methyl-N-(1-methyl-4-piperidyl)-4-(8-methyl-5-quinolyl)morpholine-2-carboxamide] here?
A: Its IC50 is 39.9 µM.

Q: What about the solubility thermodynamic (LYSA solubility assay) of the same molecule?
A: The solubility thermodynamic was over 450 µg/mL.

Q: What about the “clearance in human liver microsomes” value [1] of the same molecule?
A: Its value is 6.15 mL/min/kg.

Q: Which IC50 (human TLR9) does the source give for `C[C@@H]1CN(c2ccc(C(F)(F)F)c3ncccc23)C[C@H](C(=O)N[C@H]2CNC[C@H]2F)O1` (single isomer, unassigned) [Example 2B] here?
A: The IC50 was 34.6 µM.

Q: What about the solubility thermodynamic (LYSA solubility assay) of the same molecule?
A: Its solubility thermodynamic is over 625 µg/mL.

Q: What about the “clearance in human liver microsomes” value [1] of the same molecule?
A: The value was 6.15 mL/min/kg.

Q: With `C[C@@H]1CN(c2ccc(C(F)(F)F)c3ncccc23)C[C@H](C(=O)N2CCC(N)CC2)O1` [Example 12, (4-amino-1-piperidyl)-[(2R,6R)-6-methyl-4-[8-(trifluoromethyl)-5-quinolyl]morpholin-2-yl]methanone] as the molecule, how does the IC50 (human TLR9) read?
A: Its IC50 is 6.3 µM.

Q: What about the solubility thermodynamic (LYSA solubility assay) of the same molecule?
A: Its solubility thermodynamic is over 665 µg/mL.

Q: And the “clearance in human liver microsomes” value [1]?
A: Its value is 6.15 mL/min/kg.

Q: What does the source list for `C[C@@H]1CN(c2ccc(C(F)(F)F)c3ncccc23)C[C@H](C(=O)NC2CC3CNCC32)O1` (single isomer, unassigned) [Example 49C]?
A: IC50 (human TLR9): 7.7 µM; LYSA (LYSA solubility assay): >710.0 µg/mL; clearance in human liver microsomes [1]: 6.15 mL/min/kg

Q: Which results are given for `C[C@@H]1CN(c2ccc(C(F)(F)F)c3ncccc23)C[C@H](C(=O)NC2CC3CCCC(C2)N3)O1` (single isomer, unassigned) [Example 34B]?
A: IC50 (human TLR9): 10 µM; LYSA (LYSA solubility assay): >610.0 µg/mL; clearance in human liver microsomes [1]: 6.17 mL/min/kg

Q: Which IC50 (human TLR9) does the source give for `C[C@@H]1CN(c2ccc(C(F)(F)F)c3ncccc23)C[C@H](C(=O)NCC(C)(C)N)O1` [Example 6, (2R,6R)-N-(2-amino-2-methyl-propyl)-6-methyl-4-[8-(trifluoromethyl)-5-quinolyl]morpholine-2-carboxamide] here?
A: Its IC50 is 29.8 µM.

Q: And the solubility thermodynamic (LYSA solubility assay)?
A: Its solubility thermodynamic is over 640 µg/mL.

Q: And the “clearance in human liver microsomes” value [1]?
A: The value was 6.15 mL/min/kg.

Q: What does the source list for `C[C@@H]1CN(c2ccc(Cl)c3ncccc23)C[C@H](C(=O)NC2CCCNCC2)O1` (stereo partly drawn) [Example 25, (2R,6R)-N-(azepan-4-yl)-4-(8-chloro-5-quinolyl)-6-methyl-morpholine-2-carboxamide]?
A: IC50 (human TLR9): 12.4 µM; solubility thermodynamic (LYSA solubility assay): > 470 µg/mL; clearance in human liver microsomes [1]: 7.16 mL/min/kg
